The text below walks through data of US20160083733A1, “NOVEL TREATMENT OF METABOLIC DISEASES” (UNIVERSITY OF BREMEN, priority 2013, published 2016).

Where a SMILES comes first, the peptide text is derived from it. Where no end group is shown, it is not given here. The star is where a group is joined. Cbz = O=C(OCc1ccccc1)*

In assay [1] the test system is PDX1. Nature of the assay: PDX1 protein level, degradation and ubiquitination in HEK293 cells co-transfected with MST1. The class given is cell-based, mouse. The source says:
pCMV-myc-MST1 and kinase-dead (MST1-K59; dnMST1) are described in Yamamoto et al., J. Clin. Invest. 111 (2003), 1463-1474. Mouse pB.RSV.PDX1-GFP is described in Kawamori et al., Diabetes 52 (2003) 2896-2904. pcDNA3 Myr-HA Akt1, HA-Ubiquitin and pCDNA3 Jnk1a1 (apf)(dn-JNK) plasmids were obtained from Addgene (Cambridge, Mass.). Mouse PDX1 mutants (T11, T126, T152, T155, T214 and T231) in pCGIG5 vector were generated by site-directed mutagenesis as described previously (Frogne et al., 7 (2012), e35233). All mutations were verified by sequencing. To make bacterial expression plasmids for PDX1 mutants, the complete mouse PDX1 CDS (wild type and mutants) has been amplified by PCR using a specific set of primers from pCGIG5 plasmids and cloned into a pGEX-6P-1 bacterial expression vector. The rat insulin driven luciferase vector (RIP-Luc) was constructed by subcloning a 700 by fragment containing −660 bp of the rat 2 insulin promoter into a pMCS-Green-Renilla-Luc vector (Thermo Scientific). pCMV-Red firefly Luc vector was obtained from Thermo Scientific.
HEK293 cells were cultured in 10-cm cell culture dishes and transfected with HA-ubiquitin, PDX1 and MST1 expression plasmids for 48 h. For ubiquitination in human islets, 5000 islets per condition were transfected with ubiquitin plasmid. After 24 h, islets were infected with Ad-GFP or Ad-MST1 for 6 h and kept for another 48 h. […] Lysates were immunoprecipitated with PDX1-specific antibody overnight at 4° C. Immunocomplexes were then captured with Protein A Agarose by rotation at 4° C. for 4 h. After extensive washing, immunoprecipitates were boiled in sample buffer and proteins subjected to western blotting with ubiquitin-specific antibody.
HEK293 cells were transfected with PDX1 alone, or together with MST1 expressing-plasmids. Human islets were infected with Ad-GFP (control) or Ad-MST1. At 48 h after post-transfection/infection, cells were treated with 50 μg/ml translation initiation inhibitor cycloheximde (CHX) to the medium at the times indicated and the lysates were subjected to western blotting.

The test system of assay [2] is MST1. Put plainly: MST1 activation and AKT signalling in INS-1E cells and human islets, western blotting. The class given is cell-based, rat. As to conditions: for glucose- and cytokine-induced P-MST1, MST1-cleavage and apoptosis: INS-1E cells, 72 h, GLP1 and insulin 100 nM. For orientation: In western blotting, separated proteins are transferred to a membrane and probed.
Protocol: Islet purity was greater than 95% as judged by dithizone staining (if this degree of purity was not achieved by routine isolation, islets were handpicked). Islets from MST1^−/− mice and their WT littermates were isolated as described previously (Schulthess et al., Cell. Metab. 9 (2009) 125-139). Pancreata were perifused with a Liberase™ (#05401119001, Roche, Mannheim, Germany) solution according to the manufacturer's instructions and digested at 37° C., followed by washing and handpicking Human islets were cultured in complete CMRL-1066 (Invitrogen) medium at 5.5 mM glucose and mouse islets and INS-1E cells at complete RPMI-1640 medium at 11.1 mM glucose and HEK293 cells were cultured in Dulbecco's modified Eagle's medium (DMEM). All media included with glutamate, 1% penicillin-streptomycin and 10% fetal bovine serum (FBS, all PAA). INS-1E medium was supplemented with 10 mM HEPES, 1 mM sodium pyruvate and 50 μM β-mercaptoethanol. Islets and INS-1E were exposed to complex diabetogenic conditions: 22.2-33.3 mM glucose, 0.5 mM palmitic acid, the mixture of 2 ng/ml recombinant human IL-1β (R&D Systems, Minneapolis, Minn.)+1,000 U/ml recombinant human IFN-γ (PeProTech) for 72 h, 100 μM H2O2 for 6 h, 1 mM streptozotocin (STZ) for 8 h or 1 mM thapsigargin for 6 h (all Sigma).
At the end of the incubation periods, islets and INS1E cells were washed in ice-cold PBS and lysed in lysis buffer containing 20 mM Tris acetate, 0.27 M sucrose, 1 mM EDTA, 1 mM EGTA, 50 mM NaF, 1% Triton X-100, 5 mM sodium pyrophosphate and 10 mM β-glycerophosphate. Prior to use, the lysis buffer was supplemented with Protease- and Phosphatase-inhibitors (Pierce, Rockford, Ill., USA). Protein concentrations were determined with the BCA protein assay (Pierce). Equivalent amounts of protein from each treatment group were run on a NuPAGE 4-12% Bis-Tris gel (Invitrogen) and electrically transferred onto PVDF membranes. […] Membrane was developed using a chemiluminescence assay system (Pierce) and analyzed using DocIT®LS image acquisition 6.6a (UVP BioImaging Systems, Upland, Calif., USA).

The test system of assay [3] is PDX1. Put plainly: Luciferase reporter assay of PDX1 transcriptional activity (rat Ins2-Luc) in HEK293 cells. In kind it is cell-based. Conditions: HEK293, 48 h. On the procedure:
The transcriptional activity of the PDX1 at promoter level was evaluated using rat Ins2-Luc renilla reporter gene HEK293 cells were transfected with Ins2-Luc renilla, pCMV-firefly, PDX1-WT or PDX1-T11A, alone or together with Myc-MST1 expressing plasmids for 48 h. INS-1E cells transfected with Ins2-Luc renilla and pCMV-firefly plasmids and were infected with Ad-GFP or Ad-MST1 for 48 h. Luciferase activity determined using the Renilla-Firefly Luciferase Dual Assay Kit according to the manufacturer's instructions (Pierce). pCMV-firefly was used as transfection control.

A further assay has as its system INS-1E cells. Put plainly: Glucose stimulated insulin secretion (GSIS) in INS-1E cells. As to conditions: Ad-MST1 72 h. In kind it is cell-based, rat. Here is the method: (§1) For acute insulin release in response to glucose, primary human and mouse islets and INS1 cells were washed and pre-incubated (30 min) in Krebs-Ringer bicarbonate buffer (KRB) containing 2.8 mM glucose and 0.5% BSA. KRB was then replaced by KRB 2.8 mM glucose for 1 h (basal), followed by an additional 1 h in KRB 16.7 mM glucose. Insulin content was extracted with 0.18N HCl in 70% ethanol. Insulin was determined using human and mouse insulin ELISA (ALPCO Diagnostics, Salem, N.H.). Secreted insulin was normalized to insulin content.

For a further assay, the system named is human islets. Put plainly: Glucose stimulated insulin secretion (GSIS) in human islets. In kind it is cell-based. As to conditions: Ad-MST1 72 h. Here is the method:
as §1

Assay [4] has as its system PDX1 target genes. Nature of the assay: RT-PCR of PDX1 target genes in INS-1E cells. In kind it is cell-based, rat. Conditions: INS-1E cells (FIG. 21 d). The text has this:
(§2) Total RNA was isolated from cultured human islets and INS1 cells using TRIzol (Invitrogen), and RT-PCR performed as described previously (Shu et al., Diabetologica 55 (2012), 3296-307). For analysis, the Applied Biosystems StepOne Real-Time PCR system (Applied Biosystems, CA, USA) with TaqMan® Fast Universal PCR Master Mix for TaqMan assays (Applied Biosystems) was used. TaqMan® Gene Expression Assays were used for pdx1 (Hs00426216_m1), SLC2A2 (Hs01096905_m1), GCK (Hs01564555_m1), insulin (Hs02741908_m1), PPIA (Hs99999904_m1) and tubulin (Hs00362387_m1) for human and PDX1 (Rn00755591_m1), SLC2A2 (Rn00563565_m1), GCK (Rn00688285_m1), INS1 (Rn02121433_g1), […] (Rn01774648_g1), BCL2L11 (Hs01083836_m1), PPIA (Rn00690933_m1) and tuba1a (Rn01532518_g1) for rat.

Assay [5] deals with PDX1 target genes. Nature of the assay: RT-PCR of PDX1 target genes in human islets. The class given is cell-based. Conditions: human islets (FIG. 15 q).
Excerpt: as §2

Assay [6] deals with T1, MST1 (Homo sapiens, UniProt Q13043).
T1 construct: purchased Upstate Biotechnology
T1 sequence (Q13043 1-487): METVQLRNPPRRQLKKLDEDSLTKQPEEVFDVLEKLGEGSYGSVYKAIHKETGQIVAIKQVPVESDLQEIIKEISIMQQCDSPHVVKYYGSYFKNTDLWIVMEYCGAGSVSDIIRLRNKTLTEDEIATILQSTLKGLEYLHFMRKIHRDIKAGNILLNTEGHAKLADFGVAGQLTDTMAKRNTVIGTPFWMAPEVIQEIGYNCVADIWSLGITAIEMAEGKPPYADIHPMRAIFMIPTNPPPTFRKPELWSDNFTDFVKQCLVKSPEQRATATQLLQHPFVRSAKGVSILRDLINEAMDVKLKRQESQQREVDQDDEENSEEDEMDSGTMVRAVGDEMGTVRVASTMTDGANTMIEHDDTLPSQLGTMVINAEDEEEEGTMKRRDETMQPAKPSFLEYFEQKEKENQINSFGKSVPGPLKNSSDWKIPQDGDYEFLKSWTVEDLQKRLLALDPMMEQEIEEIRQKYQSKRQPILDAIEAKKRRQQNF
Put plainly: In vitro kinase assay, phosphorylation of PDX1 by recombinant MST1. In kind it is biochemical. On the procedure: For immunoprecipitation, cells were washed with PBS and lysed in cold buffer containing 20 mM Tris-HCl (pH 7.5), 150 mM NaCl, 0.27 M sucrose, 1 mM EDTA, 1 mM EGTA, 50 mM NaF, 1% NP-40, 5 mM sodium pyrophosphate and 10 mM β-glycerophosphate supplemented with proteinase/phosphatase inhibitors for 30 min on ice. Lysates were centrifuged at 12,000 g for 15 min at 4° C. prior to immunoprecipitation. Immunoprecipitations were carried out with incubating 0.5-1 mg of total lysate with rabbit anti-PDX1 (1:500), rabbit anti-MST1 (1:50), mouse anti-Myc (1:1000) and rabbit anti-GFP (1:1000) antibodies on a rotator at 4° C. overnight. Immunocomplexes were then captured with Protein A Agarose Fast Flow (Millipore) by rotation at 4° C. for 4 h. After five washes with cold lysis buffer, the immunoprecipitates were used for kinase assays or resuspended in sample buffer and separated by NuPAGE 4-12% Bis-Tris gels (Invitrogen).
Purified human active MST1 (Upstate Biotechnology) was incubated with ^32P-ATP (2 μCi, Perkin Elmer Life Sciences), ATP (100 μM) and 1 mM dithiothreitol (DTT) in a kinase buffer containing 40 mM HEPES (pH 7.4), 20 mM MgCl2, 1 mM EDTA and 1 μg of purified recombinant human PDX-1 (Abcam) or bacterially purified GST-PDX1 (WT and mutants) as substrates. After incubation at 30° C. for 30 min, the reaction was stopped by adding loading buffer and proteins were separated on NuPAGE gels and phosphorylation levels visualized either by autoradiography or specific antibody for phospho-PDX1. The total PDX1 was detected with anti-PDX1 antibody.
Expression and induction of recombinant GST proteins were performed as described previously (Tolia et al., Nat. Methods 3 (2006), 55-64). Escherichia coli BL21 cells with various GST-fusion expression plasmids were cultured at 37° C. and expression of recombinant proteins was induced by 0.1 mM final concentration of Isopropyl-β-D-thio-galactoside (IPTG; sigma) for 2.5 h. Cells were lysed using B-PER bacterial protein extraction reagent (Pierce) and purified using Glutathione Spin Columns (Pierce).

As for `CC(C)C[C@@H](C=O)NC(=O)[C@H](CC(C)C)NC(=O)[C@H](CC(C)C)NC(=O)OCc1ccccc1` [MG-132, reference compound] (Cbz-Leu-Leu-Leu-aldehyde), the “disappearance of PDX1” value in the assay with PDX1 [1] (PDX1 overexpressing HEK293 cells with MST1, MG-132 50 μM for 6 h) is given as “abolished”.

As for “GLP1: Glucagon like-peptide 1 (Sigma), exogenously added mitogen (HAEGTFTSDVSSYLEGQAAKEFIAWLVKGR; ends and bridges not checked; UniProt P01275 98-127, looked up)”, in the assay with MST1 [2], the “glucose- and cytokine-induced P-MST1, MST1-cleavage and apoptosis” value was “inhibited”.

On to “PDX1-T11A: mutant PDX1 with amino acid Thr11 substituted to alanine, inert to phosphorylation by MST1”, for which the “Reduction of PDX1 transcriptional activity by MST1” value in the assay on PDX1 [3] is “not”. The “MST1-induced impairment in GSIS” value with INS-1E cells and in the assay on human islets was “normalized” in each case. For the same molecule, the “MST1-induced down regulation of PDX1 target genes” value in the assay on PDX1 target genes [4] and with PDX1 target genes [5] was “restored” each time. Further, the “MST1-induced rapid degradation of PDX1 in the presence of CHX” value in the assay with PDX1 [1] (50 μg/ml CHX) is recorded as “did not occur”. In addition, in the assay on PDX1 [1] (HEK293 cells, 48 h), the “PDX1 levels in presence of MST1” value is “does not decrease”. For the same molecule, the PDX1 ubiquitination entry in the assay on PDX1 [1] (HEK293 cells, HA-ubiquitin, 48 h, MG-132 last 6 h) was “less”. Moreover, in the assay with MST1 [6] (all PDX1 mutants transfected into HEK293), the “phosphorylation by recombinant MST1 of PDX1 immunoprecipitated from HEK293 cells” value is reported as “markedly decreased”. The “MST1-induced phosphorylation at the Thr11 site and overall Thr-phosphorylation” value in the assay with MST1 [6] (p-T11 and pan-Threonine antibodies, immunoprecipitated PDX1) is listed as “markedly reduced”. For the same molecule, the “threonine phosphorylation of PDX1-GST fusion proteins by MST1” value in the assay with MST1 [6] (proteins purified from bacteria, pan-phospho threonine antibody) is recorded as “exception”.

Regarding insulin: recombinant human insulin, the “glucose- and cytokine-induced P-MST1, MST1-cleavage and apoptosis” value with MST1 [2] was “inhibited”.

For the molecule z-DEVD-fmk, the “stress-induced MST1 cleavage by diabetic stimuli” value in the assay on MST1 [2] (human islets and INS-1E cells) is “JNK and caspase-3 were responsible for stress-induced MST1 cleavage”.
